In patent US6737425B1, “N,N-substituted cyclic amine derivatives” (Eisai Co., Ltd., priority 1998, dated 2004):
Counter-ions that a name gives are not always drawn.

What was measured:
[1] = system: glutamic acid release from rat cerebral cortex slices; assay: Inhibitory activity on glutamic acid release (cerebral cortex slices, high-conc. KCl); assay type: cell-based; conditions: glutamic acid release induced with 50 mM KCl, HPLC
Description: Inhibitory Activity on Glutamic Acid Release
Cerebral cortexes were isolated from SD strain male rats (8-week-old) and used to prepare 300 μm×300 μm slices by use of a slice chopper. The prepared slices were incubated at 37° C. for 30 minutes in solution C (120 mM NaCl, 4 mM KCl, 10 mM MgSO4, 16 mM NaHCO3, 10 mM glucose, 1 mM NaH2PO4, 10 mM HEPES-NaOH pH 7.4) in the presence of 95% O2/5% CO2. Thereafter, solution C was exchanged with fresh one, followed by further incubation for 30 minutes.
The cerebral cortex slices were incubated in a 24-wells plate for cell culture according to a multi-well method (Brain Res., 402, 255-263, 1987), and the release of glutamic acid was induced with 50 mM KCl. Solution D (120 mM NaCl, 4 mM KCl, 1.2 mM CaCl2, 1 mM MgSO4, 16 mM NaHCO3, 10 mM glucose, 1 mM NaH2PO4, 10 mM HEPES-NaOH pH 7.4) was aerated with 95% O2/5% CO2 and kept at 37° C. and used in this experiment. 50 mM KCl containing the same total amount of K^+ and Na^+ was prepared. Slices corresponding to 1 to 2 mg protein were placed on an upper cup provided with a mesh at the bottom, and 1.3 ml solution C or 50 mM KCl solution was introduced into a lower well, and the upper cup was transferred to a new well. 20 minutes before and 5 minutes after reaction was intiated, the test compound was added to solution D or 50 mM KCl.
Glutamic acid was quantified by HPLC using fluorescent etor (Ex. 330 nm Em. […]). The eluting solvent used was prepared by diluting 150 ml sodium citrate buffer for automatic amino acid analysis (Wako Pure Chemical Industries) 10-fold with distilled water, then adding MgCl2 thereto at the final concentration of 50 mM, and further diluting it twice with acetonitrile. The flow rate was 2.0 ml/min. The column used was Asahipak (ES-502N Denko, K. K.). The glutamic acid was converted into a derivative by addition, to 50 μl sample, of 50 μl deriving agent (10 mg o-phthalaldehyde/500 μl MeOH, 10 μl b-mercaptopropionic acid, 0.15 M sodium borate buffer pH 9.5, 100 μl) followed by stirring (Neuroscience Lett., 96, 202-206, 1989).

[2] = system: voltage-dependent calcium channels (cerebral cortex synaptosome); assay: Measurement of voltage-dependent calcium channel activity by the use of a fluorescent pigment (fura 2); assay type: cell-based; conditions: rat cerebral cortex synaptosome, fura 2, KCl stimulation, compound incubated 10 minutes
Description: Measurement of Voltage-dependent Calcium Channel Activity by the use of a Fluorescent Pigment (fura 2)
Cerebral cortexes were removed from cut rat brains and disrupted roughly with scissors. These were introduced into a homogenizer, homogenized in 0.3 M saccharose and centrifuged at 4° C. (1,500 g×10 min). The resulting supernatant was further centrifuged at 4° C. (10,000 g×20 min). The resulting precipitates were suspended in 0.3 M saccharose. The suspension was layered on 0.8 M saccharose and centrifuged (10,000 g×30 min.).
4 μM fura 2/AM (Dojin Ltd.) was suspended in solution A to prepare a loading solution. To the synaptosome solution prepared in the method described above was added an equal volume of the loading solution, and the mixture was incubated for 40 minutes at room temperature.
As comparative and control compound, verapamil hydrochloride was used.

IC50 [2] | SMILES | also measured
– | CC(C)C(C#N)(CCCN1CCN(CCOc2ccc(F)cc2)CC1)c1ccccc1 (single isomer, unassigned; (+)) [Example 76, (+)-1-[(4-Cyano-5-methyl-4-phenyl)hexyl]-4-[2-(4-fluorophenoxyl)ethyl]piperazine Hydrochloride] | IC50 ([1]; Hydrochloride): 3.9 µM; IC50 ([2]; Hydrochloride): 5.8 µM
– | CC(C)C(C#N)(CCCN1CCN(CCOc2ccc(F)cc2)CC1)c1ccccc1 (single isomer, unassigned; (-)) [Example 75, hydrochloride] | IC50 ([1]; Rattus norvegicus): 2.9 µM; IC50 ([2]; Hydrochloride): 4.5 µM
– | N#CC(CCCN1CCN(CCOc2ccc(F)cc2)CC1)(c1ccccc1)C1CCCCC1 (single isomer, unassigned; (-)) [Example 79, (−)-1-[(4-Cyano-4-cyclohexyl-4-phenyl)butyl]-4-[2-(4-fluorophenoxyl)ethyl]piperazine Hydrochloride] | IC50 ([1]; Rattus norvegicus): 5.9 µM; IC50 ([2]; Hydrochloride): 3.3 µM
3.5 µM | Cc1ccc(C(C#N)(CCCN2CCN(CCOc3ccc(F)cc3)CC2)C(C)C)cc1 (stereo not drawn) [Example 9, 1-[4-Cyano-5-methyl-4-(4-methylphenyl)hexyl]-4-[2-(4-fluorophenoxy)ethyl]piperazine] | IC50 ([1]; Rattus norvegicus): 2.4 µM
3.2 µM | CC(C)C(C#N)(CCCN1CCN(CCOc2ccc(F)cc2)CC1)c1ccc(Cl)cc1 (stereo not drawn) [Example 10, 1-[4-Cyano-5-methyl-4-(4-chlorophenyl)hexyl]-4-[2-(4-fluorophenoxy)ethyl]piperazine] | IC50 ([1]; Rattus norvegicus): 2 µM
4.8 µM | COc1ccc(C(C#N)(CCCN2CCN(CCOc3ccc(F)cc3)CC2)C(C)C)cc1 (stereo not drawn) [Example 11, 1-[4-Cyano-5-methyl-4-(4-methoxyphenyl)hexyl]-4-[2-(4-fluorophenoxy)ethyl]piperazine] | IC50 ([1]; Rattus norvegicus): 3.8 µM
5.5 µM | CC(C)C(C#N)(CCCN1CCN(CCOc2ccc(F)cc2)CC1)c1cccs1 (stereo not drawn) [Example 20, 1-{[4-Cyano-5-methyl-4-(2-thienyl)hexyl]}-4-[2-(4-fluorophenoxy)ethyl]piperazine] | IC50 ([1]; Rattus norvegicus): 1.9 µM
5.4 µM | CC(C)C(C#N)(CCCN1CCN(CCOc2ccc(F)cc2)CC1)c1ccccc1F (stereo not drawn) [Example 22, 1-{[4-Cyano-5-methyl-4-(2-fluorophenyl)hexyl]}-4-[2-(4-fluorophenoxy)ethyl]piperazine] | IC50 ([1]; Rattus norvegicus): 4.1 µM
4.3 µM | CC(C)C(C#N)(CCCN1CCN(CCOc2ccc(F)cc2)CC1)c1cccc(F)c1 (stereo not drawn) [Example 23, 1-[{4-Cyano-5-methyl-4-(3-flourophenyl)hexyl]}-4-[2-(4-fluorophenoxy)ethyl]piperazine] | IC50 ([1]; Rattus norvegicus): 2.5 µM
2.7 µM | CC(C)C(C#N)(CCCN1CCN(CCOc2ccc(C(F)(F)F)cc2)CC1)c1ccccc1 (stereo not drawn) [Example 102, 1-[(4-Cyano-5-methyl-4-phenyl)hexyl]-4-[2-(4-trifluoromethylphenoxy)ethyl]piperazine] | –
2.5 µM | CC(C)C(C#N)(CCCN1CCN(CCOc2cccc3ccccc23)CC1)c1ccccc1 (stereo not drawn) [Example 103, 1-[(4-Cyano-5-methyl-4-phenyl)hexyl]-4-[2-(1-naphthyloxy)ethyl]piperazine] | –
2.2 µM | CCC(CN1CCN(CCCC(C#N)(c2ccccc2)C(C)C)CC1)Oc1ccc(F)cc1 (stereo not drawn) [Example 104, 1-[(4-Cyano-5-methyl-4-phenyl)hexyl]-4-[2-(4-fluorophenoxy)butyl]piperazine] | –
> 16 µM | CC(C)C(C#N)(CCCN1CCN(CCOc2ncnc3ccccc23)CC1)c1ccccc1 (stereo not drawn) [Example 105, 1-[(4-Cyano-5-methyl-4-phenyl)hexyl]-4-[2-(4-quinazolinyloxy)ethyl]piperazine] | –
7 µM | CC(C)C(C#N)(CCCN1CCN(CCOc2ccc(-c3cccnc3)cc2)CC1)c1ccccc1 (stereo not drawn) [Example 106, 1-[(4-Cyano-5-methyl-4-phenyl)hexyl]-4-{2-[4-(3-pyridyl)phenoxy]ethyl}piperazine] | –
4.1 µM | CC(C)C(C#N)(CCCN1CCN(CCOc2cccc(-c3cccnc3)c2)CC1)c1ccccc1 (stereo not drawn) [Example 107, 1-[(4-Cyano-5-methyl-4-phenyl)hexyl]-4-{2-[3-(3-pyridyl)phenoxy]ethyl}piperazine] | –
3.3 µM | CC(C)C(C#N)(CCCN1CCN(CCOc2ccc(Br)cc2)CC1)c1ccccc1 (stereo not drawn) [Example 108, 1-[(4-Cyano-5-methyl-4-phenyl)hexyl]-4-[2-(4-bromophenoxy)ethyl]piperazine] | –
3.3 µM | CC(C)C(C#N)(CCCN1CCN(CCOc2cccc(Br)c2)CC1)c1ccccc1 (stereo not drawn) [Example 109, 1-[(4-Cyano-5-methyl-4-phenyl)hexyl]-4-[2-(3-bromophenoxy)ethyl]piperazine] | –
3.5 µM | CC(C)C(C#N)(CCCN1CCN(CCOc2ccccc2Br)CC1)c1ccccc1 (stereo not drawn) [Example 110, 1-[(4-Cyano-5-methyl-4-phenyl)hexyl]-4-[2-(2-bromophenoxy)ethyl]piperazine] | –
> 16 µM | CC(C)C(C#N)(CCCN1CCN(CCOc2ccc(-n3ccnc3)cc2)CC1)c1ccccc1 (stereo not drawn) [Example 111, 1-[(4-Cyano-5-methyl-4-phenyl)hexyl]-4-{2-[4-(imidazol-1-yl)phenoxy]ethyl}piperazine] | –
> 16 µM | CC(C)C(C#N)(CCCN1CCN(CCOc2ncccn2)CC1)c1ccccc1 (stereo not drawn) [Example 112, 1-[(4-Cyano-5-methyl-4-phenyl)hexyl]-4-[2-(2-pyrimidinyloxy)ethyl]piperazine] | –
4.5 µM | CC(C)C(C#N)(CCCN1CCN(CCOc2ccccc2-c2cccnc2)CC1)c1ccccc1 (stereo not drawn) [Example 113, 1-[(4-Cyano-5-methyl-4-phenyl)hexyl]-4-{2-[2-(3-pyridyl)phenoxy]ethyl}piperazine] | –
6.8 µM | CC(C)C(C#N)(CCCN1CCN(CCOc2ccc(F)cc2)CC1)c1ccc(C#N)s1 (stereo not drawn) [Example 114, 1-[4-Cyano-5-methyl-4-(2-cyano-5-thienyl)hexyl]-4-[2-(4-fluorophenoxy)ethyl]piperazine] | –
5.8 µM | CC(C)C(C#N)(CCCN1CCN(CCOc2cccc(F)c2)CC1)c1ccc(C#N)s1 (stereo not drawn) [Example 115, 1-[4-Cyano-5-methyl-4-(2-cyano-5-thienyl)hexyl]-4-[2-(3-fluorophenoxy)ethyl]piperazine] | –
5.5 µM | CC(C)C(C#N)(CCCN1CCN(CCOc2cccc(F)c2)CC1)c1cccs1 (stereo not drawn) [Example 116, 1-[4-Cyano-5-methyl-4-(2-thienyl)hexyl]-4-[2-(3-fluorophenoxy)ethyl]piperazine] | –
3.2 µM | CC(C)C(C#N)(CCCN1CCN(CCOc2cccc(-c3ccsc3)c2)CC1)c1ccccc1 (stereo not drawn) [Example 117, 1-[(4-Cyano-5-methyl-4-phenyl)hexyl]-4-{2-[3-(3-thienyl)phenoxy]ethyl}piperazine] | –
6.4 µM | Cc1cccc(/C=C/c2ccccc2OCCN2CCN(CCCC(C#N)(c3ccccc3)C(C)C)CC2)n1 (stereo not drawn) [Example 118, 1-[(4-Cyano-5-methyl-4-phenyl)hexyl]-4-{2-[2-(6-methyl-2-pyridyl)vinylphenoxyl]ethyl}piperazine] | –
7.7 µM | CC(C)C(C#N)(CCCN1CCN(CCOc2cccc(C#N)c2)CC1)c1ccccc1 (stereo not drawn) [Example 119, 1-[(4-Cyano-5-methyl-4-phenyl)hexyl]-4-[2-(3-cyanophenoxy)ethyl]piperazine] | –
4.1 µM | CC(C)C(C#N)(CCCN1CCN(CCOc2cccc(-c3ccccc3)c2)CC1)c1ccccc1 (stereo not drawn) [Example 120, 1-[(4-Cyano-5-methyl-4-phenyl)hexyl]-4-[2-(3-phenylphenoxy)ethyl]piperazine] | –
6.8 µM | CC(C)C(C#N)(CCCN1CCN(CCOc2cccc(/C=C/C#N)c2)CC1)c1ccccc1 (stereo not drawn) [Example 121, 1-[(4-Cyano-5-methyl-4-phenyl)hexyl]-4-{2-[3-(2-cyanovinyl)phenoxy]ethyl}piperazine] | –
12 µM | CC(C)C(C#N)(CCC(=O)N1CCN(CCOc2ccc(F)cc2)CC1)c1ccccc1 (stereo not drawn) [Example 122, 1-[(4-Cyano-5-methyl-4-phenyl)hexanoyl]-4-[2-(4-fluorophenoxy)ethyl]piperazine] | –
